Test results taken from patent US20260042769A1, “TRIARYL AGONISTS OF ALPHA-2 ADRENERGIC RECEPTORS” (ALCEPTOR THERAPEUTICS, INC., priority 2023, published 2026).

Molecular target: T1, human ADRA2B receptor (Homo sapiens, UniProt P18089)
T1 construct: expressed in transfected cells
T1 sequence (P18089 1-450): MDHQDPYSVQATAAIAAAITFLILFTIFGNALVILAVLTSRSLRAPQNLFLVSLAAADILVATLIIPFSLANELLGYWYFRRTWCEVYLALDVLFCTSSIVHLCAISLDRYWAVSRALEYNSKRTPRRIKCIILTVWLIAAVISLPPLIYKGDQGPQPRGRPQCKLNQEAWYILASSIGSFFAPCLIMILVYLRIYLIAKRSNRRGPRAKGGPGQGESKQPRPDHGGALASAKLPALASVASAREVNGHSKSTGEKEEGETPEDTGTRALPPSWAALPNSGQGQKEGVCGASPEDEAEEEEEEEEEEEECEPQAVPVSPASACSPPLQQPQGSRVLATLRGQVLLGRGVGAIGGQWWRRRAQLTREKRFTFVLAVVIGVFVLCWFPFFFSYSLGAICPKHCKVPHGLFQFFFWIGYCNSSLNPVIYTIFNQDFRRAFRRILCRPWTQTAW
Assay: GTPγS agonist assay, ADRA2B receptor
Type: biochemical
Settings: read-out: GTPase - Human Alpha2B EC50
Experimental: GTP ? S Agonist Assays (ADRA2A, ADRA2B, and ADRA2C Receptors)
Membranes were prepared for GTP ? S binding assays from CHO-K1 cells stably expressing human ADRA2A, ADRA2B, or ADRA2C receptor. Briefly, cells were grown in 5-layer cell culture flasks. Cells were washed with 50 mL of PBS and then dissociated with 0.05% trypsin. Dissociated cells were then collected by centrifugation at 650×g for 8 min at 4° C. Pellets were washed again in PBS by centrifugation and resuspended in 30 mL of 20 mM HEPES, 10 mM EDTA, pH 7.4. After sitting on ice for 30 min, membranes were collected by centrifugation at 50000×g for 15 min at 4° C., resuspended in 30 mL of 20 mM HEPES, 0.1 mM EDTA, pH 7.4 and collected again by centrifugation. Pellets were then washed twice by centrifugation in 30 mL of 20 mM HEPES, pH 7.4, and stored at −80° C. until the day of the assay. On the day of the assay, pellets were thawed on ice and resuspended in 1 mL of 20 mM HEPES, pH 7.4, 10 mM MgCl2, 100 mM NaCl using dounce homogenization. Membrane protein concentration was determined by BCA protein assay (Promega, Madison, WI) according to Promega guidelines.
On the day of the assay, serial dilutions of test compounds were brought up in assay buffer (20 mM HEPES, 10 mM MgCl2, 200 mM NaCl) at 10× final assay concentration. 50 μL/well of membrane homogenates (containing 5 μg of membrane protein for ADRA2A, ADRA2B, or 7.5 μg for ADRA2C) were prepared in assay buffer supplemented with GDP at 2× final assay concentration (5 μM GDP) and dispensed into 96 well polypropylene, U-bottom Greiner plates. Then, 10 μL of compounds were added to assay plates and incubated for 10 min at room temperature. […] The binding reaction was incubated for 1 h at 37° C. Membranes in assay reactions were then transferred to GF/C filter plates (UniFilter, Perkin Elmer) and washed three times using a FilterMate Harvester (Perkin Elmer) with cold assay buffer containing no GDP. Filter plates were then dried at 40° C. overnight followed by the addition of 30 μL/well of Beta Plate Scintillation liquid. Plates were top and bottom sealed before being read on TopCount scintillation counter (Perkin Elmer, Waltham, MA).

EC50 [nM] | SMILES
< 10 | COc1cc(OC)nc(CC(c2c[nH]cn2)c2cccc(C)c2C)n1 (stereo not shown) [Compound 91, 2-[2-(2,3-dimethylphenyl)-2-(1H-imidazol-4-yl)ethyl]-4,6-dimethoxy-pyrimidine]
50 to 500 | Cc1c(Cl)cccc1C(Cc1ccccn1)c1cnc[nH]1 (stereo not shown) [Compound 49, 2-[2-(3-chloro-2-methylphenyl)-2-(1H-imidazol-4-yl)ethyl] pyridine]
50 to 500 | COc1cccc(C[C@@H](c2c[nH]cn2)c2cccc(C)c2C)n1 [Compound 4, 2-[(2R)-2-(2,3-dimethylphenyl)-2-(1H-imidazol-4-yl)ethyl]-6-methoxypyridine]
> 500 | COc1ccc(C(Cc2cccnn2)c2c[nH]cn2)cc1 (stereo not shown) [Compound 222, 3-[2-(4-imidazolyl)-2-(p-methoxyphenyl)ethyl] pyridazine]
< 10 | COc1cccc(C[C@H](c2c[nH]cn2)c2cccc(C)c2C)n1 [Compound 3, 2-[(2S)-2-(2,3-dimethylphenyl)-2-(1H-imidazol-4-yl)ethyl]-6-methoxypyridine]
> 500 | Fc1cccc(C(Cc2cccnn2)c2c[nH]cn2)c1Cl (stereo not shown) [Compound 218, 3-[2-(2-chloro-3-fluorophenyl)-2-(4-imidazolyl)ethyl] pyridazine]
> 500 | FC1(F)Oc2cccc([C@H](Cc3ccccn3)c3c[nH]cn3)c2O1 [Compound 122, 4-[(S)-1-(4-imidazolyl)-2-(2-pyridyl)ethyl]-2,2-difluoro-2H-1,3-benzodioxole]
> 500 | Cc1cccc([C@@H](Cc2cccnn2)c2c[nH]cn2)c1Cl [Compound 214, 3-[(R)-2-(2-chloro-3-tolyl)-2-(4-imidazolyl)ethyl] pyridazine]
> 500 | COc1cccc(C[C@H](c2c[nH]cn2)c2cccc(Cl)c2Cl)n1 [Compound 99, 4-[(S)-1-(2,3-dichlorophenyl)-2-(6-methoxy-2-pyridyl)ethyl] imidazole]
50 to 500 | COc1nccc(CC(c2c[nH]cn2)c2cccc(Cl)c2C#N)n1 (stereo not shown) [Compound 196, 6-chloro-2-[1-(4-imidazolyl)-2-(2-methoxy-4-pyrimidinyl)ethyl] benzonitrile]
10 to 50 | COc1nccc(CC(c2c[nH]cn2)c2cccc3c2cnn3C)n1 (stereo not shown) [Compound 194, 4-[1-(4-imidazolyl)-2-(2-methoxy-4-pyrimidinyl)ethyl]-1-methyl-1H-indazole]
10 to 50 | Cc1cccc([C@H](Cc2ccnn2C)c2c[nH]cn2)c1C [Compound 131, 5-[(S)-2-(4-imidazolyl)-2-(2,3-xylyl)ethyl]-1-methyl-pyrazole]
< 10 | Cc1cccc([C@H](Cc2cccc(C(F)(F)F)n2)c2c[nH]cn2)c1C [Compound 80, 2-[(2S)-2-(2,3-dimethylphenyl)-2-(1H-imidazol-4-yl)ethyl]-6-(trifluoromethyl) pyridine]
> 500 | c1cnnc(C[C@@H](c2c[nH]cn2)c2cccc3c2CCO3)c1 [Compound 324, 3-[(R)-2-(2,3-dihydro-1-benzofuran-4-yl)-2-(4-imidazolyl)ethyl]pyridazine]
> 500 | COc1nccc(CC(c2ccc(C(F)(F)F)cc2)c2c[nH]cn2)n1 (stereo not shown) [Compound 199, 4-{2-(4-imidazolyl)-2-[p-(trifluoromethyl)phenyl]ethyl}-2-methoxypyrimidine]
< 10 | Cc1csc(CC(c2c[nH]cn2)c2cccc(C)c2C)n1 (stereo not shown) [Compound 132, 2-[2-(4-imidazolyl)-2-(2,3-xylyl)ethyl]-4-methyl-1,3-thiazole]
10 to 50 | Cc1cccc([C@H](Cc2cccnn2)c2c[nH]cn2)c1Cl [Compound 213, 3-[(S)-2-(2-chloro-3-tolyl)-2-(4-imidazolyl)ethyl] pyridazine]

More lines, now with the values behind:

SMILES | EC50 [nM]
c1ccc(C[C@@H](c2cnc[nH]2)c2cccc3c2CCO3)nc1 [Compound 42, 2-[(2R)-2-(2,3-dihydro-1-benzofuran-4-yl)-2-(1H-imidazol-4-yl)ethyl] pyridine] | 50 to 500
Fc1ccc(C(Cc2cccnn2)c2c[nH]cn2)cc1F (stereo not shown) [Compound 224, 3-[2-(3,4-difluorophenyl)-2-(4-imidazolyl)ethyl] pyridazine] | > 500
COc1ncc(CC(c2c[nH]cn2)c2cccc3c2OCC3)c(OC)n1 (stereo not shown) [Compound 312, 5-[2-(2,3-dihydro-1-benzofuran-7-yl)-2-(4-imidazolyl)ethyl]-2,4-dimethoxypyrimidine] | 10 to 50
Cc1cccc([C@@H](Cc2ccnc(C(F)(F)F)n2)c2cnc[nH]2)c1C [Compound 73, 4-[(2R)-2-(2,3-dimethylphenyl)-2-(1H-imidazol-4-yl)ethyl]-2-(trifluoromethyl) pyrimidine] | > 500
Cc1cccc(CC(c2cnc[nH]2)c2cccc(C)c2C)n1 (stereo not shown) [Compound 96, 2-[2-(2,3-dimethylphenyl)-2-(1H-imidazol-4-yl)ethyl]-6-methyl-pyridine] | 10 to 50
Cc1cnc(C[C@H](c2cnc[nH]2)c2cccc(C)c2C)nc1 [Compound 74, 2-[(2S)-2-(2,3-dimethylphenyl)-2-(1H-imidazol-4-yl)ethyl]-5-methyl-pyrimidine] | > 500
Cc1cccc([C@H](Cc2cccnn2)c2cnc[nH]2)c1C [Compound 55, 3-[(2S)-2-(2,3-dimethylphenyl)-2-(1H-imidazol-4-yl)ethyl] pyridazine] | 10 to 50
c1cc2c(c([C@H](Cc3cnn(C4CC4)c3)c3c[nH]cn3)c1)OCC2 [Compound 290, 4-[(S)-2-(2,3-dihydro-1-benzofuran-7-yl)-2-(4-imidazolyl)ethyl]-1-] | < 10
Cc1cccc(C(Cc2cccc(=O)[nH]2)c2cnc[nH]2)c1C (stereo not shown) [Compound 87, 6-[2-(2,3-dimethylphenyl)-2-(1H-imidazol-4-yl)ethyl] pyridin-2-ol] | > 500
Cc1cccc(C(Cc2ccnnc2)c2cnc[nH]2)c1C (stereo not shown) [Compound 85, 4-[2-(2,3-dimethylphenyl)-2-(1H-imidazol-4-yl)ethyl] pyridazine] | 10 to 50
Cc1cccc(C(Cc2ccncc2)c2cnc[nH]2)c1C (stereo not shown) [Compound 97, 4-[2-(2,3-dimethylphenyl)-2-(1H-imidazol-5-yl)ethyl] pyridine] | < 10
COc1c(C)cccc1[C@@H](Cc1ccccn1)c1cnc[nH]1 [Compound 34, 2-[(2R)-2-(1H-imidazol-4-yl)-2-(2-methoxy-3-methylphenyl)ethyl]pyridine] | > 500
Cc1cccc([C@@H](Cc2cscn2)c2c[nH]cn2)c1C [Compound 119, 4-[(R)-2-(4-imidazolyl)-2-(2,3-xylyl)ethyl]-1,3-thiazole] | < 10
Cc1cncc(CC(c2cnc[nH]2)c2cccc(C)c2C)n1 (stereo not shown) [Compound 88, 2-[2-(2,3-dimethylphenyl)-2-(1H-imidazol-4-yl)ethyl]-6-methylpyrazine] | 10 to 50
Cc1cc(C[C@H](c2cnc[nH]2)c2cccc(C)c2C)n(C)n1 [Compound 68, 5-[(2S)-2-(2,3-dimethylphenyl)-2-(1H-imidazol-4-yl)ethyl]-1,3-dimethyl-1H-pyrazole] | > 500
Cc1nccc(C[C@@H](c2cnc[nH]2)c2cccc(C)c2C)n1 [Compound 71, 4-[(2R)-2-(2,3-dimethylphenyl)-2-(1H-imidazol-4-yl)ethyl]-2-methyl-pyrimidine] | > 500
Cc1cccc([C@@H](Cc2cccnn2)c2cnc[nH]2)c1C [Compound 56, 3-[(2R)-2-(2,3-dimethylphenyl)-2-(1H-imidazol-4-yl)ethyl] pyridazine] | > 500
Cc1cccc([C@@H](Cc2cccnc2)c2cnc[nH]2)c1C [Compound 59, 3-[(2R)-2-(2,3-dimethylphenyl)-2-(1H-imidazol-4-yl)ethyl] pyridine] | < 10
COc1ccccc1[C@H](Cc1ccccn1)c1cnc[nH]1 [Compound 31, 2-[(2S)-2-(1H-imidazol-4-yl)-2-(2-methoxyphenyl)ethyl]pyridine] | > 500
Cc1cccc(C(Cc2ccnnc2)c2cnc[nH]2)c1C (stereo not shown) [Compound 104, 4-[2-(4-imidazolyl)-2-(2,3-xylyl)ethyl] pyridazine] | > 500
